What was measured:
[1] = Solubility of the compounds in tested solvents; type: physicochemical; design: key to solubility: “−” means NO solubility; “++” means VERY GOOD solubility
[2] = Refractive index (RI) measured at 20° C.; type: physicochemical
Method: (§1) (nD^20) and viscosity n measured at 23° C. (η23° C.) for compounds of formula (I) according to the invention denoted as (Ib) and (Ic), and comparative compounds (C1), (C2) and (C3). Compound (Ib) is N,N′-bisacryloyl-N,N′-bisallyl-[…], and compound (Ic) is N,N′-bisacryloyl-N,N′-bispropyl-1,4-but-2-endiamine. Comparative compound (C1) is N,N′-bisacetyl-N,N′-bisallyl-1,4-but-2-endiamine, (C2) is N,N′-bisacryloyl-N,N′-bisallyl-1,4-butandiamine, and C(3) is N,N′-bisacryloyl-N,N′-bispropyl-1,4-butandiamine. In FIG. 1, RI is depicted by dark grey bars, and the viscosity η by light grey hatched bars. For comparative compound (C1), no viscosity η was determined (indicated by “*”), since this compound is a solid.

[3] = Viscosity measured at 23° C.; type: physicochemical; conditions: viscosity at 23° C.
Method: as §1

[4] = Discoloration of the dental composition upon storage; type: physicochemical; conditions: storage at 50° C. for 30 days
Text: Discoloration upon storage and/or during photocuring may be determined according to ISO 7491:2000(en).

[5] = refractive index at 20° C., tables
[6] = refractive index, preparative examples

C=CC(=O)N(CCC)CCCCN(CCC)C(=O)C=C [(C3), N,N′-Bisacryloyl-N,N′-bispropyl-1,4-butandiamine]
solubility ([1]; EtOH): ++ | solubility ([1]; acetone): ++ | solubility ([1]; iPrOH): ++ | solubility ([1]; methacrylic acid): ++ | solubility ([1]; water): − | nD^20 [2, 5]: 1.5150 | nD^20 [2, 6]: 1.515 | η23° C. ([3]; preparative examples): 486±1 Pa*s | η23° C. ([3]; tables): 485.5 mPa · s

C=CCN(C/C=C/C(C)N(CC=C)C(=O)C=C)C(=O)C=C (stereo not drawn) [Compound (Ib)]
solubility ([1]; EtOH): ++ | solubility ([1]; acetone): ++ | solubility ([1]; iPrOH): ++ | solubility ([1]; methacrylic acid): ++ | solubility ([1]; water): − | nD^20 [2, 5]: 1.5260 | nD^20 [2, 6]: 1.526 | η23° C. ([3]; tables): 409.0 mPa · s

C=CCN(C/C=C/CN(CC=C)C(=O)C=C)C(=O)C=C [(Ia)]
solubility ([1]; EtOH): ++ | solubility ([1]; acetone): ++***) | solubility ([1]; iPrOH): ++ | solubility ([1]; methacrylic acid): ++ | solubility ([1]; water): −**^) | nD^20 [2, 5]: 1.5290 | η23° C. ([3]; tables): 338.0 mPa · s

C=CC(=O)N(C/C=C/CN(CCC)C(=O)C=C)CCC [(Ic), N,N′-Bisacryloyl-N,N′-bispropyl-1,4-but-2-endiamine]
solubility ([1]; EtOH): ++ | solubility ([1]; acetone): ++ | solubility ([1]; iPrOH): ++ | solubility ([1]; methacrylic acid): ++ | solubility ([1]; water): − | nD^20 [2, 5]: 1.5095 | nD^20 [2, 6]: 1.5095 | η23° C. ([3]; preparative examples): 428±3 Pa*s | η23° C. ([3]; tables): 427.5 mPa · s

C=CCN(CCCCN(CC=C)C(=O)C=C)C(=O)C=C [(C2), N,N′-Bisacryloyl-N,N′-bisallyl-1,4-butandiamine]
solubility ([1]; EtOH): − | solubility ([1]; acetone): ++ | solubility in alcohols ([1]; alcohols like ethanol or isopropanol): not soluble | solubility ([1]; iPrOH): − | solubility ([1]; methacrylic acid): ++ | solubility ([1]; water): − | solubility ([1]; water/alcohol): − | nD^20 [2, 5]: 1.5150 | nD^20 [2, 6]: 1.515 | η23° C. ([3]; tables): 382.0 mPa · s

CC(C)(C)c1cc(O)c(C(C)(C)C)cc1O [DTBHQ]
discoloration of the dental composition upon storage [4]: no or almost no discoloration

C=CCN(C/C=C/CN(CC=C)C(C)=O)C(C)=O [(C1), N,N′-Bisacetyl-N,N′-bisallyl-1,4-but-2-endiamine]
solubility ([1]; EtOH): ++ | solubility ([1]; acetone): ++ | solubility ([1]; iPrOH): ++ | solubility ([1]; methacrylic acid): ++ | solubility ([1]; water): − | nD^20 [2, 6]: 1.505 | melting point: 32 °C
